Assays:
Test in all cases: radiometric filter-binding kinase assay
CSNK2A1 (human) = CSNK2A1 (human) (UniProt P68400)
SRC (human) = SRC (human) (UniProt P12931)
ROCK2 (rat) = conditions: accession and sequence are those of the human protein
LCK (mouse) = conditions: accession and sequence are those of the human protein
AURKB (human) = AURKB (human) (UniProt Q96GD4)
PRKAA1 or PRKAA2 (rat) = conditions: accession and sequence are those of the human protein
MELK (human) = MELK (human) (UniProt Q14680)
CSK (human) = CSK (human) (UniProt P41240)
PRKACA (human) = PRKACA (human) (UniProt P17612)
MKNK2 (human) = MKNK2 (human) (UniProt Q9HBH9)
RPS6KA1 KD1 KD2 (human) = RPS6KA1 KD1 KD2 (human) (UniProt Q15418)
CHEK2 (human) = CHEK2 (human) (UniProt O96017)
EEF2K (human) = EEF2K (human) (UniProt O00418)
MYLK (human) = MYLK (human) (UniProt Q15746)
MAPK13 (human) = MAPK13 (human) (UniProt O15264)
PRKCZ (human) = PRKCZ (human) (UniProt Q05513)
INSRR (human) = INSRR (human) (UniProt P14616)
EPHB3 (human) = EPHB3 (human) (UniProt P54753)
MKNK1 (human) = MKNK1 (human) (UniProt Q9BUB5)
PHKG1 (human) = PHKG1 (human) (UniProt Q16816)
CDK2 CCNA2 (human) = CDK2 CCNA2 (human) (UniProt P20248+P24941)
FGFR1 (human) = FGFR1 (human) (UniProt P11362)
GSK3B (human) = GSK3B (human) (UniProt P49841)
MAPK1 (human) = MAPK1 (human) (UniProt P28482)

CSNK2A1 (human), sequence (P68400 whole entry, looked up): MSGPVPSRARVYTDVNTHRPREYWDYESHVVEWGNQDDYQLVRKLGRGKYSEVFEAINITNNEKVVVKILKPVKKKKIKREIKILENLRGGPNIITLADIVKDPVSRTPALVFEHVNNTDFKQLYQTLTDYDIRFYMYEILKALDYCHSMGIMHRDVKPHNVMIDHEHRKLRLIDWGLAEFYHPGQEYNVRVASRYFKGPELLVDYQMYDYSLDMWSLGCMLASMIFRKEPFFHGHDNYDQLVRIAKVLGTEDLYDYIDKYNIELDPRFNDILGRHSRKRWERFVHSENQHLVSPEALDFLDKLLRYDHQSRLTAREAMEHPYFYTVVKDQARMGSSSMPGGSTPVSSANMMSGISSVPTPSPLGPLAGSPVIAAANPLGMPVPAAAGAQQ
MKNK2 (human), sequence (Q9HBH9 whole entry, looked up): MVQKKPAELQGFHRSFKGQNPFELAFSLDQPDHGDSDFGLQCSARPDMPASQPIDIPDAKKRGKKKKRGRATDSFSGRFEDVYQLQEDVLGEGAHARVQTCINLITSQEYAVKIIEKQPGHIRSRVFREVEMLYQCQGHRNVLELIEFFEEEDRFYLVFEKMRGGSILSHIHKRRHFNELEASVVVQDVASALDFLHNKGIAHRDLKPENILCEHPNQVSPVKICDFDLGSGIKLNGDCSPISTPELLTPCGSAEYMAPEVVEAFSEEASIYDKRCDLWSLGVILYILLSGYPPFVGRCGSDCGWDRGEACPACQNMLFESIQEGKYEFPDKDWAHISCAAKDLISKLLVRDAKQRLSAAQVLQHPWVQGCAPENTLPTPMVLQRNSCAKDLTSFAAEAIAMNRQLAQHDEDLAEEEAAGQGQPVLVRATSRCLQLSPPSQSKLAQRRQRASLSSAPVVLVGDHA
EEF2K (human), sequence (O00418 whole entry, looked up): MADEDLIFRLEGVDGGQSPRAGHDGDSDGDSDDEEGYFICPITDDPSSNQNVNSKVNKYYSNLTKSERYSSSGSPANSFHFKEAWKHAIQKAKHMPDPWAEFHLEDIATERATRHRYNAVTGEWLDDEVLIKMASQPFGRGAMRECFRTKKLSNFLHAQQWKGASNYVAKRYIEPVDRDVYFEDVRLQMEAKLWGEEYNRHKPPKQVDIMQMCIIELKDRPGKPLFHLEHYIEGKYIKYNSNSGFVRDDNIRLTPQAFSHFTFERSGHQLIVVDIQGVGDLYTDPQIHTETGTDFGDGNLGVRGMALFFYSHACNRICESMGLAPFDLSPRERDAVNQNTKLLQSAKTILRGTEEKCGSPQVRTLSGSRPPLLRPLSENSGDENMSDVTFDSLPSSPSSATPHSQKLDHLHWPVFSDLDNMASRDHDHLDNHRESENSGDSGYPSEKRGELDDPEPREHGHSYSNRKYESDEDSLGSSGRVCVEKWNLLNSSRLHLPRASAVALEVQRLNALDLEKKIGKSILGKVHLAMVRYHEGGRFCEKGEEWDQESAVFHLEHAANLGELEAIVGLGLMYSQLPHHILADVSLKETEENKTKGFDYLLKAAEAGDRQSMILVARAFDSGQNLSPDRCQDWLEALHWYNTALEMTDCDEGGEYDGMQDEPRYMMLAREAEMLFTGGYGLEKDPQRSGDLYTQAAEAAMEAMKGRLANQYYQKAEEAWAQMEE
PRKCZ (human), sequence (Q05513 whole entry, looked up): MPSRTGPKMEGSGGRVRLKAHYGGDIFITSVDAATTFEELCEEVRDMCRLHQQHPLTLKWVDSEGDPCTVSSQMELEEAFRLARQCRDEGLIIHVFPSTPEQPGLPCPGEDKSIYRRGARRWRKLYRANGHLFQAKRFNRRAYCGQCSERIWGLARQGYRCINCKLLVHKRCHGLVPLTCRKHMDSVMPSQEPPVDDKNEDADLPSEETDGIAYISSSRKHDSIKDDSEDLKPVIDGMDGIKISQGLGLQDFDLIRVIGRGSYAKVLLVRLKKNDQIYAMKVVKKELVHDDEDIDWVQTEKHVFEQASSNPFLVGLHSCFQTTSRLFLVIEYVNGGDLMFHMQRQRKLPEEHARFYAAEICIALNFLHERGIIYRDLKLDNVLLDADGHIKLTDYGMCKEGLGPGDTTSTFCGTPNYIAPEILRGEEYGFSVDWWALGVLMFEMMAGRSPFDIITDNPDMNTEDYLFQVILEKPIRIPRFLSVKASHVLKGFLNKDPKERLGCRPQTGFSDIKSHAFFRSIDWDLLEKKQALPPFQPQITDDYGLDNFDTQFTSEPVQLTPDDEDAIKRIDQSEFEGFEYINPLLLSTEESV
SRC (human), sequence (P12931 whole entry, looked up): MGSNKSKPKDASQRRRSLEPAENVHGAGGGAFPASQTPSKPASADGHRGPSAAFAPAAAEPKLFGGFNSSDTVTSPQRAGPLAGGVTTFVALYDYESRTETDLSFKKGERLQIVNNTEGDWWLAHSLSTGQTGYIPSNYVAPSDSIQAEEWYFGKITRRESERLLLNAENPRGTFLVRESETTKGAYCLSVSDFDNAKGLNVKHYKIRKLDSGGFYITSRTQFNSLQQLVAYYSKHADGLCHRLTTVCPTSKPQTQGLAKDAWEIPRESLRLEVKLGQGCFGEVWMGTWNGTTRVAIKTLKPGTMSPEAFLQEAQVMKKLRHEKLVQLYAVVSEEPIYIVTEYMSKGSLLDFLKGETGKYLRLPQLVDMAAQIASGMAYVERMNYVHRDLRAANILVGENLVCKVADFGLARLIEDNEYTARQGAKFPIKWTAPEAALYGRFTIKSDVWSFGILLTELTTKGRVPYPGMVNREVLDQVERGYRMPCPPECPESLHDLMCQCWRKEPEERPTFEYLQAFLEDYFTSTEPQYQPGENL
CHEK2 (human), sequence (O96017 whole entry, looked up): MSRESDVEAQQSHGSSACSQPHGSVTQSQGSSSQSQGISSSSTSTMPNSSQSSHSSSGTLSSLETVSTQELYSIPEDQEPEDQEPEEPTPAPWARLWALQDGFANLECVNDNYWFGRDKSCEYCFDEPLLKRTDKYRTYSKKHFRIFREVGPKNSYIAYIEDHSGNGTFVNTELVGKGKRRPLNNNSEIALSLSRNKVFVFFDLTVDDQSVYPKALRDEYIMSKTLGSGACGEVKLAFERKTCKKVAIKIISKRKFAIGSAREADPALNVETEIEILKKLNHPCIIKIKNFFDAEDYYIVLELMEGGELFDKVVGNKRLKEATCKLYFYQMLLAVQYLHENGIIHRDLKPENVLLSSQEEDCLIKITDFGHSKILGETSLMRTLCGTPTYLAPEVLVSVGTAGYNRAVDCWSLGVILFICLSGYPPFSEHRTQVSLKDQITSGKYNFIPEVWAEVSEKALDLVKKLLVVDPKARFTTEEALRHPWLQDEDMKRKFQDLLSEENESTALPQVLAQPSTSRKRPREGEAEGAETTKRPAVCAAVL
MELK (human), sequence (Q14680 whole entry, looked up): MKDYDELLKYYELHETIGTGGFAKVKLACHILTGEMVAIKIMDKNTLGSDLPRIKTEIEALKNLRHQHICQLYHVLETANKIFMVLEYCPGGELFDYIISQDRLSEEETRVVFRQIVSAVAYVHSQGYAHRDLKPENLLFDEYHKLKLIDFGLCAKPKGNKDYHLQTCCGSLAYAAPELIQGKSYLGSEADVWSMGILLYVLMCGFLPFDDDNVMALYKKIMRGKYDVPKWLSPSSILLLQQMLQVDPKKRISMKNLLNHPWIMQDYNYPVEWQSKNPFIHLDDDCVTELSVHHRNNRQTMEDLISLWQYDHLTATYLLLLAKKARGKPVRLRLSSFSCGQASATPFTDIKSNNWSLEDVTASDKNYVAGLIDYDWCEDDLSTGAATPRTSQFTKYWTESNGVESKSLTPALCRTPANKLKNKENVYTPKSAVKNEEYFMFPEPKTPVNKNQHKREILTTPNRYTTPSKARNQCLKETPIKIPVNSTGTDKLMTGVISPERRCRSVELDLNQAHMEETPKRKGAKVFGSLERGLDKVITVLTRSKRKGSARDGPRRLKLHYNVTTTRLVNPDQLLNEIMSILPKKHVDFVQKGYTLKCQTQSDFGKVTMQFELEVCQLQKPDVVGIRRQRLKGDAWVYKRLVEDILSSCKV
GSK3B (human), sequence (P49841 whole entry, looked up): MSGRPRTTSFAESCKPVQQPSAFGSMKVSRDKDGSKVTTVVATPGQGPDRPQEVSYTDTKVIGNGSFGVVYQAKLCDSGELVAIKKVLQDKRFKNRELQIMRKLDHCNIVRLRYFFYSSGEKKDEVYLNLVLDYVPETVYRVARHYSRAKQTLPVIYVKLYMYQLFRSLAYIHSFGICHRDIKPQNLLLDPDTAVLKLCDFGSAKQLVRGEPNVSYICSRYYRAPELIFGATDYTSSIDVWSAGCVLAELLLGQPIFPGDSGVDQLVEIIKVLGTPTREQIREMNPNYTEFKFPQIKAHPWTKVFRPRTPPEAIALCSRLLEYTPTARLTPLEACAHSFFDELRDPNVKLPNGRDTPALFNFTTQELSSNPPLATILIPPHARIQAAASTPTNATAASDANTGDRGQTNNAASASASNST
MKNK1 (human), sequence (Q9BUB5 whole entry, looked up): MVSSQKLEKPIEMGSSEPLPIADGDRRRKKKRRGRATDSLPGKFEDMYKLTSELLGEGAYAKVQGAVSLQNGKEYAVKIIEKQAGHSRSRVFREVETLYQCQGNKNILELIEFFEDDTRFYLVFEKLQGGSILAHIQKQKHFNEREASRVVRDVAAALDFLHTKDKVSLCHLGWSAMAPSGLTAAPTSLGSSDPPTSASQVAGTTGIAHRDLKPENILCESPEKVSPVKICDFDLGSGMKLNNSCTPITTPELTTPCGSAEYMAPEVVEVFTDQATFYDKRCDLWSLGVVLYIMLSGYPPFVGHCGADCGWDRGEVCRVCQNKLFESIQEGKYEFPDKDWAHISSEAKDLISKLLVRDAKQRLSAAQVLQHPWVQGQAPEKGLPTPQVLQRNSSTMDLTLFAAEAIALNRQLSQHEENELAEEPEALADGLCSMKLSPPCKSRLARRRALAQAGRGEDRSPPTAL

O=C1NC(=S)N[C@@H]1Cc1c[nH]c2ccccc12
residual activity (CSNK2A1 (human); compound 1.0 µM): 83%
residual activity (CSNK2A1 (human); compound 10.0 µM): 93%
residual activity (SRC (human); compound 1.0 µM): 94%
residual activity (SRC (human); compound 10.0 µM): 99%
residual activity (ROCK2 (rat); compound 1.0 µM): 83%
residual activity (ROCK2 (rat); compound 10.0 µM): 96%
residual activity (LCK (mouse); compound 1.0 µM): 74%
residual activity (LCK (mouse); compound 10.0 µM): 95%
residual activity (AURKB (human); compound 1.0 µM): 100%
residual activity (AURKB (human); compound 10.0 µM): 106%
residual activity (PRKAA1 or PRKAA2 (rat); compound 1.0 µM): 102%
residual activity (PRKAA1 or PRKAA2 (rat); compound 10.0 µM): 95%
residual activity (MELK (human); compound 1.0 µM): 84%
residual activity (MELK (human); compound 10.0 µM): 100%
residual activity (CSK (human); compound 1.0 µM): 101%
residual activity (CSK (human); compound 10.0 µM): 104%
residual activity (PRKACA (human); compound 1.0 µM): 80%
residual activity (PRKACA (human); compound 10.0 µM): 95%
residual activity (MKNK2 (human); compound 1.0 µM): 92%
residual activity (MKNK2 (human); compound 10.0 µM): 97%
residual activity (RPS6KA1 KD1 KD2 (human); compound 1.0 µM): 80%
residual activity (RPS6KA1 KD1 KD2 (human); compound 10.0 µM): 91%
residual activity (CHEK2 (human); compound 1.0 µM): 82%
residual activity (CHEK2 (human); compound 10.0 µM): 94%
residual activity (EEF2K (human); compound 1.0 µM): 75%
residual activity (EEF2K (human); compound 10.0 µM): 85%
residual activity (MYLK (human); compound 1.0 µM): 70%
residual activity (MYLK (human); compound 10.0 µM): 94%
residual activity (MAPK13 (human); compound 1.0 µM): 94%
residual activity (MAPK13 (human); compound 10.0 µM): 98%
residual activity (PRKCZ (human); compound 1.0 µM): 77%
residual activity (PRKCZ (human); compound 10.0 µM): 83%
residual activity (INSRR (human); compound 1.0 µM): 83%
residual activity (INSRR (human); compound 10.0 µM): 90%
residual activity (EPHB3 (human); compound 1.0 µM): 81%
residual activity (MKNK1 (human); compound 1.0 µM): 85%
residual activity (PHKG1 (human); compound 1.0 µM): 95%
residual activity (PHKG1 (human); compound 10.0 µM): 96%
residual activity (CDK2 CCNA2 (human); compound 1.0 µM): 85%
residual activity (CDK2 CCNA2 (human); compound 10.0 µM): 94%
residual activity (FGFR1 (human); compound 1.0 µM): 83%
residual activity (FGFR1 (human); compound 10.0 µM): 80%
residual activity (GSK3B (human); compound 1.0 µM): 99%
residual activity (GSK3B (human); compound 10.0 µM): 92%
residual activity (MAPK1 (human); compound 1.0 µM): 80%
residual activity (MAPK1 (human); compound 10.0 µM): 88%

Cc1cc(SCc2sc(-c3ccc(C(F)(F)F)cc3)nc2C)ccc1OCC(=O)O
residual activity (CSNK2A1 (human); compound 1.0 µM): 84%
residual activity (CSNK2A1 (human); compound 10.0 µM): 79%
residual activity (SRC (human); compound 1.0 µM): 87%
residual activity (SRC (human); compound 10.0 µM): 70%
residual activity (ROCK2 (rat); compound 1.0 µM): 99%
residual activity (ROCK2 (rat); compound 10.0 µM): 91%
residual activity (LCK (mouse); compound 1.0 µM): 106%
residual activity (LCK (mouse); compound 10.0 µM): 98%
residual activity (AURKB (human); compound 1.0 µM): 110%
residual activity (AURKB (human); compound 10.0 µM): 100%
residual activity (PRKAA1 or PRKAA2 (rat); compound 1.0 µM): 94%
residual activity (PRKAA1 or PRKAA2 (rat); compound 10.0 µM): 91%
residual activity (MELK (human); compound 1.0 µM): 79%
residual activity (MELK (human); compound 10.0 µM): 85%
residual activity (CSK (human); compound 1.0 µM): 98%
residual activity (CSK (human); compound 10.0 µM): 97%
residual activity (PRKACA (human); compound 1.0 µM): 110%
residual activity (PRKACA (human); compound 10.0 µM): 86%
residual activity (MKNK2 (human); compound 1.0 µM): 99%
residual activity (MKNK2 (human); compound 10.0 µM): 83%
residual activity (RPS6KA1 KD1 KD2 (human); compound 1.0 µM): 106%
residual activity (RPS6KA1 KD1 KD2 (human); compound 10.0 µM): 113%
residual activity (CHEK2 (human); compound 1.0 µM): 81%
residual activity (CHEK2 (human); compound 10.0 µM): 101%
residual activity (EEF2K (human); compound 1.0 µM): 80%
residual activity (MYLK (human); compound 1.0 µM): 92%
residual activity (MYLK (human); compound 10.0 µM): 74%
residual activity (MAPK13 (human); compound 1.0 µM): 102%
residual activity (MAPK13 (human); compound 10.0 µM): 105%
residual activity (PRKCZ (human); compound 1.0 µM): 79%
residual activity (PRKCZ (human); compound 10.0 µM): 74%
residual activity (INSRR (human); compound 1.0 µM): 81%
residual activity (INSRR (human); compound 10.0 µM): 95%
residual activity (EPHB3 (human); compound 10.0 µM): 115%
residual activity (MKNK1 (human); compound 1.0 µM): 89%
residual activity (MKNK1 (human); compound 10.0 µM): 79%
residual activity (PHKG1 (human); compound 1.0 µM): 109%
residual activity (PHKG1 (human); compound 10.0 µM): 96%
residual activity (CDK2 CCNA2 (human); compound 1.0 µM): 87%
residual activity (CDK2 CCNA2 (human); compound 10.0 µM): 81%
residual activity (FGFR1 (human); compound 1.0 µM): 100%
residual activity (FGFR1 (human); compound 10.0 µM): 81%
residual activity (GSK3B (human); compound 1.0 µM): 87%
residual activity (GSK3B (human); compound 10.0 µM): 83%
residual activity (MAPK1 (human); compound 1.0 µM): 100%
residual activity (MAPK1 (human); compound 10.0 µM): 102%

O=C1Nc2nc(-c3c(O)cccc3OCC3CC3)cc(C3CCCNC3)c2CO1 (stereo unspecified)
residual activity (CSNK2A1 (human); compound 1.0 µM): 95%
residual activity (CSNK2A1 (human); compound 10.0 µM): 70%
residual activity (SRC (human); compound 1.0 µM): 91%
residual activity (SRC (human); compound 10.0 µM): 83%
residual activity (ROCK2 (rat); compound 1.0 µM): 73%
residual activity (ROCK2 (rat); compound 10.0 µM): 39%
residual activity (LCK (mouse); compound 1.0 µM): 88%
residual activity (LCK (mouse); compound 10.0 µM): 74%
residual activity (PRKAA1 or PRKAA2 (rat); compound 1.0 µM): 87%
residual activity (PRKAA1 or PRKAA2 (rat); compound 10.0 µM): 54%
residual activity (MELK (human); compound 10.0 µM): 58%
residual activity (CSK (human); compound 1.0 µM): 91%
residual activity (CSK (human); compound 10.0 µM): 92%
residual activity (PRKACA (human); compound 1.0 µM): 79%
residual activity (PRKACA (human); compound 10.0 µM): 65%
residual activity (MKNK2 (human); compound 1.0 µM): 98%
residual activity (MKNK2 (human); compound 10.0 µM): 87%
residual activity (RPS6KA1 KD1 KD2 (human); compound 1.0 µM): 83%
residual activity (RPS6KA1 KD1 KD2 (human); compound 10.0 µM): 46%
residual activity (CHEK2 (human); compound 1.0 µM): 77%
residual activity (CHEK2 (human); compound 10.0 µM): 46%
residual activity (EEF2K (human); compound 1.0 µM): 88%
residual activity (EEF2K (human); compound 10.0 µM): 67%
residual activity (MYLK (human); compound 1.0 µM): 76%
residual activity (MYLK (human); compound 10.0 µM): 37%
residual activity (MAPK13 (human); compound 1.0 µM): 88%
residual activity (MAPK13 (human); compound 10.0 µM): 73%
residual activity (PRKCZ (human); compound 10.0 µM): 10%
residual activity (INSRR (human); compound 1.0 µM): 78%
residual activity (INSRR (human); compound 10.0 µM): 45%
residual activity (EPHB3 (human); compound 1.0 µM): 89%
residual activity (EPHB3 (human); compound 10.0 µM): 93%
residual activity (MKNK1 (human); compound 1.0 µM): 97%
residual activity (MKNK1 (human); compound 10.0 µM): 74%
residual activity (PHKG1 (human); compound 1.0 µM): 70%
residual activity (PHKG1 (human); compound 10.0 µM): 21%
residual activity (CDK2 CCNA2 (human); compound 1.0 µM): 58%
residual activity (CDK2 CCNA2 (human); compound 10.0 µM): 14%
residual activity (FGFR1 (human); compound 1.0 µM): 96%
residual activity (FGFR1 (human); compound 10.0 µM): 79%
residual activity (GSK3B (human); compound 1.0 µM): 126%
residual activity (GSK3B (human); compound 10.0 µM): 99%
residual activity (MAPK1 (human); compound 1.0 µM): 81%
residual activity (MAPK1 (human); compound 10.0 µM): 74%
